Assay results reported in ChEMBL document CHEMBL1137840, “A novel cyclic enkephalin analogue with potent opioid antagonist activity” (Bioorg Med Chem Lett, 2004).

Columns and labels:
[1] = biological target: Kappa-type opioid receptor (Cavia porcellus) (UniProt P41144); test: Binding potency towards Kappa opioid receptor of guinea pig ileum; format: tissue-based
[2] = biological target: Mu-type opioid receptor (Cavia porcellus) (UniProt P97266); test: Binding potency towards Mu opioid receptor of guinea pig ileum; format: tissue-based
Chain of Mu-type opioid receptor (Cavia porcellus) (P97266 whole entry): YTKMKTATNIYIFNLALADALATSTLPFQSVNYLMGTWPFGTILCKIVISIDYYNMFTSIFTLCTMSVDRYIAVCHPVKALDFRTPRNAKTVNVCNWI

[3] = biological target: Delta-type opioid receptor (Mus musculus) (UniProt P32300); test: Binding potency towards Delta opioid receptor of mouse vas deferens; format: tissue-based
Chain of Delta-type opioid receptor (Mus musculus) (P32300 whole entry): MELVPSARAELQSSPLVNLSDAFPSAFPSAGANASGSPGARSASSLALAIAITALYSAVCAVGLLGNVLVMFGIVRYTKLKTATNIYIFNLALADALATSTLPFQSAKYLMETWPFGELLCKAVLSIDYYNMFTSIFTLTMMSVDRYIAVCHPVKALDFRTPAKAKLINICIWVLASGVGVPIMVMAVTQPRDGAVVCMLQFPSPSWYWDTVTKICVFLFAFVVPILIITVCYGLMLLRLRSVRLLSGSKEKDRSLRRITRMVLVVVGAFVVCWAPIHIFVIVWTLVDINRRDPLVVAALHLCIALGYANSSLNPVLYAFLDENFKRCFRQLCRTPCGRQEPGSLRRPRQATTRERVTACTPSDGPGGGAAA

[4] = Binding affinity towards Mu opioid receptor
[5] = Binding affinity towards Kappa opioid receptor
[6] = biological target: Kappa-type opioid receptor (Cavia porcellus, UniProt P41144); test: Inhibitory concentration against Kappa opioid receptor of guinea pig ileum; format: tissue-based
Chain of Kappa-type opioid receptor (P41144 whole entry): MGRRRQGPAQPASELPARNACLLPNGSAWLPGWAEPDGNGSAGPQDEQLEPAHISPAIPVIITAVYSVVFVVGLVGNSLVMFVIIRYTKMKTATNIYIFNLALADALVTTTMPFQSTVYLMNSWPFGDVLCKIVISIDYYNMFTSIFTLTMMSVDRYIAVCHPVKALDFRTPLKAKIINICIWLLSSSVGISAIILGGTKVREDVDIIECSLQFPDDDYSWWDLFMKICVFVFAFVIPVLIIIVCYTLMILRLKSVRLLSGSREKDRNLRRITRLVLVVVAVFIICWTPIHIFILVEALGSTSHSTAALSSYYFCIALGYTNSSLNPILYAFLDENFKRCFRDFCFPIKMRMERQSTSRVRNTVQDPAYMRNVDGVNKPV

[7] = Binding affinity towards Opioid receptor mu 1

Chain of Kappa-type opioid receptor (Cavia porcellus) (P41144 whole entry): as above

`Cc1cc(O)cc(C)c1[C@H](C)CC(=O)N[C@H]1CSSC[C@H](C(N)=O)NC(=O)[C@H](Cc2ccc([N+](=O)[O-])cc2)NC(=O)CNC1=O` showed a Ke [1] of 1630 nM, a Ke [2] of 845 nM and a Ke [3] of 3280 nM. For the same compound, the Ki [4] was 94.4 nM and the Ki [5] was 6970 nM.
Work on `Cc1cc(O)cc(C)c1C[C@H](N)C(=O)N[C@@H]1CSSC[C@H](C(N)=O)NC(=O)[C@H](Cc2ccc([N+](=O)[O-])cc2)NC(=O)CNC1=O` yielded an IC50 [6] of 0.54 nM, a Ki [4] of 0.24 nM and a Ki [5] of 3.77 nM.
For `Cc1cc(O)cc(C)c1CCC(=O)N[C@H]1CSSC[C@H](C(N)=O)NC(=O)[C@H](Cc2ccc([N+](=O)[O-])cc2)NC(=O)CNC1=O`, the Ke [1] was 22.6 nM, the Ke [2] was 3.68 nM and the Ke [3] was 63.3 nM. For the same compound, the Ki [4] was 4.79 nM and the Ki [5] was 299 nM.
In the case of `Cc1cc(O)cc(C)c1[C@@H](C)CC(=O)N[C@H]1CSSC[C@H](C(N)=O)NC(=O)[C@H](Cc2ccc([N+](=O)[O-])cc2)NC(=O)CNC1=O`, the Ke [1] is reported as 5.81 nM, the Ke [2] is reported as 1.4 nM and the Ke [3] is reported as 55 nM. The Ki [7] was 2.1 nM and the Ki [5] was 49.5 nM.
